Strand notation (5' to 3'): a small letter for the sugar, then the base; units joined by * are phosphorothioate-linked, units joined directly phosphodiester-linked; [ ] holds rarer units or linkages, { } end groups; capitals alone tell only the bases. k = constrained ethyl (cEt); [5mC] = 5-methylcytosine; d = 2'-deoxy (DNA)
Test system: human SMAD7 mRNA
Assay: Antisense inhibition of human SMAD7 mRNA expression in Hep3B cells by 3-10-3 cEt gapmers, 10,000 nM, electroporation (Example 2)
Type: cell-based
Conditions: Hep3B cells, electroporation with 10,000 nM antisense oligonucleotide, approximately 24 hours, SMAD7 mRNA by RT-PCR (RTS5062), relative to untreated control cells
Procedure, shortened: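 SMAD7 mRNA was measured by real-time PCR (RTS5062) with RiboGreen total-RNA normalization, about 24 h after 10,000 nM gapmer was delivered by electroporation into Hep3B cells at 20,000 per well. Gapmers were 16-mer 3-10-3 cEt, fully phosphorothioate; values are % inhibition versus untreated controls.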

## 830087 (kT*kT*kT*dT*dA*d[5mC]*dA*dG*dG*dA*dT*dA*d[5mC]*kA*k[5mC]*kT; antisense) [compound 830087]
  % Inhibition: 35%

## 830088 (kG*kT*kT*dT*dT*dA*d[5mC]*dA*dG*dG*dA*dT*dA*k[5mC]*kA*k[5mC]; antisense) [compound 830088]
  % Inhibition: 52%

## 830089 (kA*kA*kG*dA*d[5mC]*d[5mC]*d[5mC]*dT*dG*dT*dA*dA*dG*k[5mC]*kT*kT; antisense) [compound 830089]
  % Inhibition: 9%

## 830090 (kA*kT*kA*d[5mC]*dA*d[5mC]*dA*dA*dG*dA*d[5mC]*d[5mC]*d[5mC]*kT*kG*kT; antisense) [compound 830090]
  % Inhibition: 10%

## 830091 (kA*kA*kT*dA*d[5mC]*dA*d[5mC]*dA*dA*dG*dA*d[5mC]*d[5mC]*k[5mC]*kT*kG; antisense) [compound 830091]
  % Inhibition: 37%

## 830092 (kA*kT*kT*dA*dG*dT*d[5mC]*d[5mC]*d[5mC]*dA*dT*dG*dA*kA*kA*k[5mC]; antisense) [compound 830092]
  % Inhibition: 43%

## 830093 (k[5mC]*kT*k[5mC]*dA*dT*dT*dA*dG*dT*d[5mC]*d[5mC]*d[5mC]*dA*kT*kG*kA; antisense) [compound 830093]
  % Inhibition: 5%

## 830094 (kT*k[5mC]*kT*dT*dA*d[5mC]*d[5mC]*dT*dG*dA*dA*dA*dG*k[5mC]*k[5mC]*k[5mC]; antisense) [compound 830094]
  % Inhibition: 30%

## 830096 (kA*kA*k[5mC]*dA*dA*d[5mC]*dA*dT*d[5mC]*d[5mC]*dT*dG*dA*kG*k[5mC]*kG; antisense) [compound 830096]
  % Inhibition: 44%

## 830098 (kA*kG*kA*d[5mC]*dA*dA*dA*d[5mC]*d[5mC]*dT*dT*d[5mC]*d[5mC]*kG*kA*kA; antisense) [compound 830098]
  % Inhibition: 37%

## 830101 (kG*k[5mC]*k[5mC]*d[5mC]*dG*d[5mC]*dT*d[5mC]*dT*d[5mC]*dA*dG*d[5mC]*k[5mC]*kA*kG; antisense) [compound 830101]
  % Inhibition: 46%

## 830102 (kA*kG*k[5mC]*d[5mC]*d[5mC]*dG*d[5mC]*dT*d[5mC]*dT*d[5mC]*dA*dG*k[5mC]*k[5mC]*kA; antisense) [compound 830102]
  % Inhibition: 43%

## 830103 (kA*kA*kG*d[5mC]*d[5mC]*d[5mC]*dG*d[5mC]*dT*d[5mC]*dT*d[5mC]*dA*kG*k[5mC]*k[5mC]; antisense) [compound 830103]
  % Inhibition: 39%

## 830104 (kT*kA*kA*dG*d[5mC]*d[5mC]*d[5mC]*dG*d[5mC]*dT*d[5mC]*dT*d[5mC]*kA*kG*k[5mC]; antisense) [compound 830104]
  % Inhibition: 28%

## 830105 (kT*kT*kA*dA*dG*d[5mC]*d[5mC]*d[5mC]*dG*d[5mC]*dT*d[5mC]*dT*k[5mC]*kA*kG; antisense) [compound 830105]
  % Inhibition: 48%

## 830106 (k[5mC]*kA*kT*dT*dA*dA*dG*d[5mC]*d[5mC]*d[5mC]*dG*d[5mC]*dT*k[5mC]*kT*k[5mC]; antisense) [compound 830106]
  % Inhibition: 33%

## 830107 (kT*k[5mC]*kA*dT*dT*dA*dA*dG*d[5mC]*d[5mC]*d[5mC]*dG*d[5mC]*kT*k[5mC]*kT; antisense) [compound 830107]
  % Inhibition: 50%

## 830108 (kT*kT*k[5mC]*dA*dT*dT*dA*dA*dG*d[5mC]*d[5mC]*d[5mC]*dG*k[5mC]*kT*k[5mC]; antisense) [compound 830108]
  % Inhibition: 54%

## 830109 (kA*kT*kT*d[5mC]*dA*dT*dT*dA*dA*dG*d[5mC]*d[5mC]*d[5mC]*kG*k[5mC]*kT; antisense) [compound 830109]
  % Inhibition: 44%

## 830110 (k[5mC]*k[5mC]*kA*dT*dT*d[5mC]*dA*dT*dT*dA*dA*dG*d[5mC]*k[5mC]*k[5mC]*kG; antisense) [compound 830110]
  % Inhibition: 36%

## 830111 (k[5mC]*k[5mC]*k[5mC]*dA*dT*dT*d[5mC]*dA*dT*dT*dA*dA*dG*k[5mC]*k[5mC]*k[5mC]; antisense) [compound 830111]
  % Inhibition: 38%

## 830112 (kG*k[5mC]*k[5mC]*d[5mC]*d[5mC]*dA*dT*dT*d[5mC]*dA*dT*dT*dA*kA*kG*k[5mC]; antisense) [compound 830112]
  % Inhibition: 23%

## 830113 (kA*kG*k[5mC]*d[5mC]*d[5mC]*d[5mC]*dA*dT*dT*d[5mC]*dA*dT*dT*kA*kA*kG; antisense) [compound 830113]
  % Inhibition: 36%

## 830114 (kG*kA*kG*d[5mC]*d[5mC]*d[5mC]*d[5mC]*dA*dT*dT*d[5mC]*dA*dT*kT*kA*kA; antisense) [compound 830114]
  % Inhibition: 22%

## 830115 (kA*k[5mC]*k[5mC]*d[5mC]*dT*dA*dA*dA*d[5mC]*dT*dG*dA*dG*k[5mC]*k[5mC]*k[5mC]; antisense) [compound 830115]
  % Inhibition: 9%

## 830116 (k[5mC]*kA*k[5mC]*d[5mC]*d[5mC]*dT*dA*dA*dA*d[5mC]*dT*dG*dA*kG*k[5mC]*k[5mC]; antisense) [compound 830116]
  % Inhibition: 11%

## 830117 (k[5mC]*k[5mC]*kA*d[5mC]*d[5mC]*d[5mC]*dT*dA*dA*dA*d[5mC]*dT*dG*kA*kG*k[5mC]; antisense) [compound 830117]
  % Inhibition: 5%

## 830118 (kT*k[5mC]*k[5mC]*d[5mC]*dA*d[5mC]*d[5mC]*d[5mC]*dT*dA*dA*dA*d[5mC]*kT*kG*kA; antisense) [compound 830118]
  % Inhibition: 0%

## 830119 (k[5mC]*k[5mC]*kG*dA*d[5mC]*d[5mC]*dT*dT*d[5mC]*d[5mC]*dT*d[5mC]*d[5mC]*k[5mC]*kA*k[5mC]; antisense) [compound 830119]
  % Inhibition: 24%

## 830120 (kG*k[5mC]*k[5mC]*dG*dA*d[5mC]*d[5mC]*dT*dT*d[5mC]*d[5mC]*dT*d[5mC]*k[5mC]*k[5mC]*kA; antisense) [compound 830120]
  % Inhibition: 27%

## 830123 (antisense kG*kG*k[5mC]*dA*d[5mC]*d[5mC]*dA*d[5mC]*dA*dT*dT*dT*dT*k[5mC]*kA*k[5mC]) [compound 830123]
  % Inhibition: 44%

## 830124 (antisense k[5mC]*k[5mC]*kG*dA*dG*dG*d[5mC]*dA*d[5mC]*d[5mC]*dA*d[5mC]*dA*kT*kT*kT) [compound 830124]
  % Inhibition: 27%

## 830125 (antisense kT*k[5mC]*k[5mC]*dG*dA*dG*dG*d[5mC]*dA*d[5mC]*d[5mC]*dA*d[5mC]*kA*kT*kT) [compound 830125]
  % Inhibition: 46%

## 830126 (antisense k[5mC]*kT*k[5mC]*d[5mC]*dG*dA*dG*dG*d[5mC]*dA*d[5mC]*d[5mC]*dA*k[5mC]*kA*kT) [compound 830126]
  % Inhibition: 34%

## 830127 (antisense k[5mC]*k[5mC]*kT*d[5mC]*d[5mC]*dG*dA*dG*dG*d[5mC]*dA*d[5mC]*d[5mC]*kA*k[5mC]*kA) [compound 830127]
  % Inhibition: 62%

## 830129 (antisense k[5mC]*kA*k[5mC]*d[5mC]*dT*d[5mC]*d[5mC]*dG*dA*dG*dG*d[5mC]*dA*k[5mC]*k[5mC]*kA) [compound 830129]
  % Inhibition: 41%

## 830130 (antisense k[5mC]*k[5mC]*kA*d[5mC]*d[5mC]*dT*d[5mC]*d[5mC]*dG*dA*dG*dG*d[5mC]*kA*k[5mC]*k[5mC]) [compound 830130]
  % Inhibition: 32%

## 830132 (antisense kT*kA*k[5mC]*d[5mC]*d[5mC]*dG*d[5mC]*d[5mC]*d[5mC]*dA*d[5mC]*dT*d[5mC]*k[5mC]*k[5mC]*k[5mC]) [compound 830132]
  % Inhibition: 8%

## 830133 (antisense kA*k[5mC]*kA*dA*dT*d[5mC]*dT*d[5mC]*d[5mC]*dT*dG*dG*dA*kA*kG*k[5mC]) [compound 830133]
  % Inhibition: 26%

## 830134 (antisense kA*kG*kT*dA*d[5mC]*dA*dA*dT*d[5mC]*dT*d[5mC]*d[5mC]*dT*kG*kG*kA) [compound 830134]
  % Inhibition: 61%

## 830136 (antisense kG*kA*kA*dA*dG*dT*dA*d[5mC]*dA*dA*dT*d[5mC]*dT*k[5mC]*k[5mC]*kT) [compound 830136]
  % Inhibition: 64%

## 830139 (antisense kT*kG*kG*dA*dG*dT*dT*dG*d[5mC]*dA*dT*dG*d[5mC]*k[5mC]*kT*kT) [compound 830139]
  % Inhibition: 45%

## 830140 (antisense kT*k[5mC]*k[5mC]*dT*dA*dA*dG*d[5mC]*dT*dA*d[5mC]*dT*dT*kG*kG*kT) [compound 830140]
  % Inhibition: 12%

## 830141 (antisense kG*kG*k[5mC]*dA*dT*dT*dA*dG*dA*dG*dA*d[5mC]*d[5mC]*kT*k[5mC]*kA) [compound 830141]
  % Inhibition: 58%

## 830143 (antisense kG*kG*kT*dG*dT*dG*d[5mC]*dA*d[5mC]*d[5mC]*dA*dG*dG*kT*kG*kA) [compound 830143]
  % Inhibition: 62%

## 830145 (antisense kT*kG*kG*dG*dT*dG*dT*dG*d[5mC]*dA*d[5mC]*d[5mC]*dA*kG*kG*kT) [compound 830145]
  % Inhibition: 47%

## 830146 (antisense kT*kG*kG*dT*d[5mC]*dT*dT*d[5mC]*dA*d[5mC]*d[5mC]*dA*dG*kG*kG*kT) [compound 830146]
  % Inhibition: 62%

## 830147 (antisense kG*kA*k[5mC]*dT*dG*dG*dT*d[5mC]*dT*dT*d[5mC]*dA*d[5mC]*k[5mC]*kA*kG) [compound 830147]
  % Inhibition: 0%

## 830148 (antisense kG*kG*kA*d[5mC]*dT*dG*dG*dT*d[5mC]*dT*dT*d[5mC]*dA*k[5mC]*k[5mC]*kA) [compound 830148]
  % Inhibition: 19%

## 830149 (antisense kA*kG*kG*dA*d[5mC]*dT*dG*dG*dT*d[5mC]*dT*dT*d[5mC]*kA*k[5mC]*k[5mC]) [compound 830149]
  % Inhibition: 47%

## 830150 (antisense k[5mC]*kA*kG*dT*dG*dG*dT*dG*dA*d[5mC]*d[5mC]*dT*d[5mC]*k[5mC]*k[5mC]*kT) [compound 830150]
  % Inhibition: 51%
